Like-named read-outs stand apart in the source and are kept apart here.

What all share (assay type): binding
Assay [1] has as its target LIMK2 (Homo sapiens, UniProt P53671). Nature of the assay: Differential scanning fluorimetry assay for LIMK1/2. The following applies: LIMK2, 10 μM compound.
Experimental: The assay was performed according to a previously established protocol. […] The compounds to be tested were added to a final concentration of 10 μM. […] Data were analyzed with MxPro software.
Assay [2] addresses BRPF1B (Homo sapiens, UniProt P55201). Briefly: DSF selectivity screening. Particulars: 10 μM compound.
Assay [3] concerns the target 468 kinases including some pathogenic mutants (Homo sapiens, UniProt O15530). Briefly: biochemical. The following applies: PDPK1 (Entrez PDPK1), 100 nM; read-out: Percent Control.
The target of assay [4] is 468 kinases including some pathogenic mutants (Homo sapiens, UniProt O75716). Nature of the assay: biochemical. Particulars: STK16 (Entrez STK16), 1000 nM; read-out: Percent Control.
The target of assay [5] is 468 kinases including some pathogenic mutants (Homo sapiens, UniProt O94804). Nature of the assay: biochemical. The following applies: LOK (Entrez STK10), 100 nM; read-out: Percent Control.
Assay [6] concerns the target 468 kinases including some pathogenic mutants (Homo sapiens, UniProt P00519, F317I). Briefly: biochemical. Particulars: read-out: Percent Control.
Assay [7] deals with 468 kinases including some pathogenic mutants (Homo sapiens, UniProt P00519, F317L). Nature of the assay: biochemical. The following applies: read-out: Percent Control.
Assay [8] has as its target 468 kinases including some pathogenic mutants (Homo sapiens, UniProt P00533, G719C). Nature of the assay: biochemical. Particulars: read-out: Percent Control.
Assay [9] addresses 468 kinases including some pathogenic mutants (Homo sapiens, UniProt P08922). Nature of the assay: biochemical. Particulars: ROS1 (Entrez ROS1), 100 nM; read-out: Percent Control.
The target of assay [10] is 468 kinases including some pathogenic mutants (Homo sapiens, UniProt P10721). Nature of the assay: biochemical. The following applies: 100 nM, read-out: Percent Control.
The target of assay [11] is 468 kinases including some pathogenic mutants (Homo sapiens, UniProt P10721, D816H). Briefly: biochemical. Particulars: read-out: Percent Control.
In assay [12] the target is 468 kinases including some pathogenic mutants (Homo sapiens, UniProt P17948). Nature of the assay: biochemical. Particulars: FLT1 (Entrez FLT1), 100 nM; read-out: Percent Control.
The target of assay [13] is 468 kinases including some pathogenic mutants (Homo sapiens, UniProt P22455). Nature of the assay: biochemical. Particulars: FGFR4 (Entrez FGFR4), 100 nM; read-out: Percent Control.
Assay [14] has as its target 468 kinases including some pathogenic mutants (Homo sapiens, UniProt P35590). Nature of the assay: biochemical. The following applies: TIE1 (Entrez TIE1), 100 nM; read-out: Percent Control.
The target of assay [15] is 468 kinases including some pathogenic mutants (Homo sapiens, UniProt P51812). Nature of the assay: biochemical. Particulars: read-out: Percent Control.
Assay [16] concerns the target 468 kinases including some pathogenic mutants (Homo sapiens, UniProt Q00536). Nature of the assay: biochemical. The following applies: PCTK1 (Entrez CDK16), 1000 nM; read-out: Percent Control.
The target in assay [17] is 468 kinases including some pathogenic mutants (Homo sapiens, UniProt Q06418). Briefly: biochemical. The following applies: TYRO3 (Entrez TYRO3), 100 nM; read-out: Percent Control.
Assay [18] addresses 468 kinases including some pathogenic mutants (Homo sapiens, UniProt Q7L7X3). Nature of the assay: biochemical. Particulars: TAOK1 (Entrez TAOK1), 1000 nM; read-out: Percent Control.
The target of assay [19] is 468 kinases including some pathogenic mutants (Homo sapiens, UniProt Q8N752). Briefly: biochemical. The following applies: CSNK1A1L (Entrez CSNK1A1L), 100 nM; read-out: Percent Control.
In assay [20] the target is 468 kinases including some pathogenic mutants (Homo sapiens, UniProt Q8NE63). Nature of the assay: biochemical. Particulars: HIPK4 (Entrez HIPK4), 100 nM; read-out: Percent Control.
Assay [21] deals with 468 kinases including some pathogenic mutants (Homo sapiens, UniProt Q8TBX8). Briefly: biochemical. Particulars: PIP5K2C (Entrez PIP4K2C), 100 nM; read-out: Percent Control.
The target in assay [22] is 468 kinases including some pathogenic mutants (Homo sapiens, UniProt Q96J92). Nature of the assay: biochemical. Particulars: WNK4 (Entrez WNK4), 1000 nM; read-out: Percent Control.
Assay [23] deals with 468 kinases including some pathogenic mutants (Homo sapiens, UniProt Q96SB4). Briefly: biochemical. Particulars: SRPK1 (Entrez SRPK1), 100 nM; read-out: Percent Control.
In assay [24] the target is 468 kinases including some pathogenic mutants (Homo sapiens, UniProt Q9UL54). Nature of the assay: biochemical. The following applies: TAOK2 (Entrez TAOK2), 100 nM; read-out: Percent Control.
In assay [25] the target is 468 kinases including some pathogenic mutants (Homo sapiens, UniProt Q9Y6E0). Briefly: biochemical. Particulars: MST3 (Entrez STK24), 100 nM; read-out: Percent Control.
The target in assay [26] is ABL1(H396P)-nonphosphorylated (Homo sapiens, UniProt P00519, H396P). Nature of the assay: biochemical. Particulars: read-out: Percent Control.
In assay [27] the target is PIK3CA(I800L) (Homo sapiens, UniProt P42336, I800L). Briefly: biochemical. The following applies: read-out: Percent Control.
The target in assay [28] is ABL1(T315I)-phosphorylated (Homo sapiens, UniProt P00519, T315I). Nature of the assay: biochemical. The following applies: read-out: Percent Control.
Assay [29] concerns the target EGFR(L747-S752del, P753S) (Homo sapiens, UniProt P00533, DEL747-752/P753S). Nature of the assay: biochemical. Particulars: read-out: Percent Control.
Assay [30] has as its target KIT(D816V) (Homo sapiens, UniProt P10721, D816V). Briefly: biochemical. Particulars: compound concentration 100 nM; Entrez KIT; read-out: Percent Control.

Sequence of 468 kinases including some pathogenic mutants (Homo sapiens, UniProt P10721) (P10721 26-976, stated change not applied): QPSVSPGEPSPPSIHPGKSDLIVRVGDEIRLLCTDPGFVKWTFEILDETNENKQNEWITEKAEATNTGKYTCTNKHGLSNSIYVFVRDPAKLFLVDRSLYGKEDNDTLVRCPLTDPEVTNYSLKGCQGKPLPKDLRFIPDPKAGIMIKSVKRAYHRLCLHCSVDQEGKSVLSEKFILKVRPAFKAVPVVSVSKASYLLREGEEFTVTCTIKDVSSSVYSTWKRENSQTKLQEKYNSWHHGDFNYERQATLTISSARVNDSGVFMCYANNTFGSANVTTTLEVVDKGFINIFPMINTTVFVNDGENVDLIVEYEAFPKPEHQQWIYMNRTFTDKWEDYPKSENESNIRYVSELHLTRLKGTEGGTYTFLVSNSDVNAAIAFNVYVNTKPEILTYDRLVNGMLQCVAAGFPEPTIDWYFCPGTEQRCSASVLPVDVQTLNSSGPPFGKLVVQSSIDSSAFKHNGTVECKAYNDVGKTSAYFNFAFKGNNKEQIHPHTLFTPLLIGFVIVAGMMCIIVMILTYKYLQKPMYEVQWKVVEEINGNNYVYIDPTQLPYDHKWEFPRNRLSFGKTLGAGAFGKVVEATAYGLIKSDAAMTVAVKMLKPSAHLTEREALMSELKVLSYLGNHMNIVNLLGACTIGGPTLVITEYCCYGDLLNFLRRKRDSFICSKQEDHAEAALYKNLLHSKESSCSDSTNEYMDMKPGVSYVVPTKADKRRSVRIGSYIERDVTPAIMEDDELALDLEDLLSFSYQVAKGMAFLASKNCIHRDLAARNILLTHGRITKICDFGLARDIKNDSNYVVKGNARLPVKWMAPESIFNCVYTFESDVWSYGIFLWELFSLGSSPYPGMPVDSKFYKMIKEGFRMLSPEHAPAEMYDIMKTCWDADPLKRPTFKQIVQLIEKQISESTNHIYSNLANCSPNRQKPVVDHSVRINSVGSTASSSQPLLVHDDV
Sequence of 468 kinases including some pathogenic mutants (Homo sapiens, UniProt P51812) (P51812 whole entry, change not shown): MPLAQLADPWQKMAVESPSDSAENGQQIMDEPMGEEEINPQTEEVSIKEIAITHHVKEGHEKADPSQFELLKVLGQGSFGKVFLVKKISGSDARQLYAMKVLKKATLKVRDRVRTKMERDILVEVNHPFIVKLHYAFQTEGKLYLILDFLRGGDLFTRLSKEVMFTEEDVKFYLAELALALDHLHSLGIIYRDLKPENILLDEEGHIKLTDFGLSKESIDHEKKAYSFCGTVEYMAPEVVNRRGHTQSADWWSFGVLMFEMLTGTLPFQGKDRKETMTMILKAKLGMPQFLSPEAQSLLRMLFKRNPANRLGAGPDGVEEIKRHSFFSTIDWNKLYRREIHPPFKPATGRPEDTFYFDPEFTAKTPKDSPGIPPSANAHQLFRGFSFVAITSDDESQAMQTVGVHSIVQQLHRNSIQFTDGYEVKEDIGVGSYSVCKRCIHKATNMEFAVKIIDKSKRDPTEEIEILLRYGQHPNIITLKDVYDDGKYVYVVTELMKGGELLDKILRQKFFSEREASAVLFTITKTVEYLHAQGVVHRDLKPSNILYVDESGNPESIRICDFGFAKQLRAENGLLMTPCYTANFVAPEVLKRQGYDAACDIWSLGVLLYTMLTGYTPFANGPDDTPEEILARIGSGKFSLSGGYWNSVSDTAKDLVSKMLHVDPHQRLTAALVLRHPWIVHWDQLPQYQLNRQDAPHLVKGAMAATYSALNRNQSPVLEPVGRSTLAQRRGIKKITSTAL
Sequence of 468 kinases including some pathogenic mutants (Homo sapiens, UniProt Q00536) (Q00536 whole entry, change not shown): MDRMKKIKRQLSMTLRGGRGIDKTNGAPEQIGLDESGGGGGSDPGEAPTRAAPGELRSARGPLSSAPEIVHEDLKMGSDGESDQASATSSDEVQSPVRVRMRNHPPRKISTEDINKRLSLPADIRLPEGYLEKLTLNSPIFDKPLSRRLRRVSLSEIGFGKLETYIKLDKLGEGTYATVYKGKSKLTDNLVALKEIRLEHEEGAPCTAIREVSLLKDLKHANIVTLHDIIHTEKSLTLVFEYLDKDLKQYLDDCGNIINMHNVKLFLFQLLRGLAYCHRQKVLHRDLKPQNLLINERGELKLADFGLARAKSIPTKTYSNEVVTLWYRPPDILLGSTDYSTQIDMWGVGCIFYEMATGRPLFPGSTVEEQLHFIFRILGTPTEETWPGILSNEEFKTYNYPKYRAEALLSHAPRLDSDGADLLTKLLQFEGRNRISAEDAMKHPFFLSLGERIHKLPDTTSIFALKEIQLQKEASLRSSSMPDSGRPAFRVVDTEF
Sequence of 468 kinases including some pathogenic mutants (Homo sapiens, UniProt Q7L7X3) (Q7L7X3 whole entry, change not shown): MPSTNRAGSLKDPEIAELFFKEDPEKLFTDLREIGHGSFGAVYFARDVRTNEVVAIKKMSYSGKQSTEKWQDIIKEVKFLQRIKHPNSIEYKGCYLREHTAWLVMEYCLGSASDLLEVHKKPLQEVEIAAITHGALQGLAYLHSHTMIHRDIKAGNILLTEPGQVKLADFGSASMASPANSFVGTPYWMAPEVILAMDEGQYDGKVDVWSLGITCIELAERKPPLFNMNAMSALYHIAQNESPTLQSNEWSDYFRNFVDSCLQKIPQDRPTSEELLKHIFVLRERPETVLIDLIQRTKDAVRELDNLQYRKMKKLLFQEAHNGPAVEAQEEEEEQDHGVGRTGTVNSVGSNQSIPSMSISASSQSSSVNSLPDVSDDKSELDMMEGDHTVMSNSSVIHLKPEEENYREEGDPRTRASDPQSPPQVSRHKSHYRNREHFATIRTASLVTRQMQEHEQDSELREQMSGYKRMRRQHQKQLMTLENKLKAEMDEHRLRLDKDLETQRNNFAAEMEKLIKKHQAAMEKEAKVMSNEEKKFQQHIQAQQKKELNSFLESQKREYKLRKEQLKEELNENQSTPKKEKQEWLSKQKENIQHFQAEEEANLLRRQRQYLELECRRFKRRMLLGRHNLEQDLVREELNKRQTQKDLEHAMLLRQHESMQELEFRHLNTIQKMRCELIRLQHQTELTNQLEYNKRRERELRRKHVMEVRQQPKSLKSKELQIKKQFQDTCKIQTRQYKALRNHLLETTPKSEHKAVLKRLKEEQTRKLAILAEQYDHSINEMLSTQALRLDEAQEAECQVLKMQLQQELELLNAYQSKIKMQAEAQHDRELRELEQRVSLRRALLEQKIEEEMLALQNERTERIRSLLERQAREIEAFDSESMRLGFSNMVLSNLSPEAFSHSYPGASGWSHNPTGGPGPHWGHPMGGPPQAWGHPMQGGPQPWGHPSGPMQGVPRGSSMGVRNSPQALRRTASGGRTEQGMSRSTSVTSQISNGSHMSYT
Sequence of 468 kinases including some pathogenic mutants (Homo sapiens, UniProt P00533, G719C) (P00533 25-1210 G719C): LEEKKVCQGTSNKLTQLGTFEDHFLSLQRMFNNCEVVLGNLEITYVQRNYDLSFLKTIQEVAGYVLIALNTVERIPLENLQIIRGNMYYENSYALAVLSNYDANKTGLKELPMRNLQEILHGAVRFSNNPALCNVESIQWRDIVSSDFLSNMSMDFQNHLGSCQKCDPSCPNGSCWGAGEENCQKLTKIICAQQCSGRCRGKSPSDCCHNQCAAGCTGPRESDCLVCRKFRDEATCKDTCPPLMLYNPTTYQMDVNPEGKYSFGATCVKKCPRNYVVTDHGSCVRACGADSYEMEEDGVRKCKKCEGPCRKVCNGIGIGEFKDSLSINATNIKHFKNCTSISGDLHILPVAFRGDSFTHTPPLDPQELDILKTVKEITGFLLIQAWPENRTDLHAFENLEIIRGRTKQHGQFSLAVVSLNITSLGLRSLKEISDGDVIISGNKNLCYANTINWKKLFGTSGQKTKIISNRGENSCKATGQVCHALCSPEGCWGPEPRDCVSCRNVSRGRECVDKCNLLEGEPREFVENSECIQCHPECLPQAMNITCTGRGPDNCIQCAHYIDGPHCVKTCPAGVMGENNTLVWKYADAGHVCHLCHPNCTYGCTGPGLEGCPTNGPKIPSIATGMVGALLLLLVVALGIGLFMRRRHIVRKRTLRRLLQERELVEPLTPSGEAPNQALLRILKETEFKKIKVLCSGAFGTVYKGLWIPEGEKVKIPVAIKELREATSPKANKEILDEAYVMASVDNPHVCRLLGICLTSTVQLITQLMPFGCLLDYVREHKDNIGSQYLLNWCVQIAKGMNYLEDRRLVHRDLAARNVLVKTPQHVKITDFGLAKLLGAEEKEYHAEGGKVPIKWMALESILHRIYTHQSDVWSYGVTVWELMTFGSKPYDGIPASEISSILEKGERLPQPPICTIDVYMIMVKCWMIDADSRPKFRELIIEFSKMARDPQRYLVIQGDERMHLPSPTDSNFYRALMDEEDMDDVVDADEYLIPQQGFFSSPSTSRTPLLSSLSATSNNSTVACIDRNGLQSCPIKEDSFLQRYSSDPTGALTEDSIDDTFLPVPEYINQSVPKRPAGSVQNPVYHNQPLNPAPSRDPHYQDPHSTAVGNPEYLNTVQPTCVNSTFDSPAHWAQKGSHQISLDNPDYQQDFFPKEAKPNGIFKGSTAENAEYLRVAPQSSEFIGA
Sequence of EGFR(L747-S752del, P753S) (P00533 other isoform, or with tags, fused parts or gaps DEL747-752/P753S): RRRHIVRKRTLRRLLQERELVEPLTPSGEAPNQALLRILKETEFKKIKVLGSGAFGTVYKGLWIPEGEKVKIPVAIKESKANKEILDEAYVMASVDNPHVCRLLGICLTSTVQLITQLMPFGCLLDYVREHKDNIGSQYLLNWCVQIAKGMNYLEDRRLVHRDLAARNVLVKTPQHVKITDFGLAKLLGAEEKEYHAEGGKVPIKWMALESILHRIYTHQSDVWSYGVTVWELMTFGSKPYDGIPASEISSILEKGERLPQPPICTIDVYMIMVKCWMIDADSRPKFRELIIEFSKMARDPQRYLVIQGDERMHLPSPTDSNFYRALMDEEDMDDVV
Sequence of 468 kinases including some pathogenic mutants (Homo sapiens, UniProt O75716) (O75716 whole entry, change not shown): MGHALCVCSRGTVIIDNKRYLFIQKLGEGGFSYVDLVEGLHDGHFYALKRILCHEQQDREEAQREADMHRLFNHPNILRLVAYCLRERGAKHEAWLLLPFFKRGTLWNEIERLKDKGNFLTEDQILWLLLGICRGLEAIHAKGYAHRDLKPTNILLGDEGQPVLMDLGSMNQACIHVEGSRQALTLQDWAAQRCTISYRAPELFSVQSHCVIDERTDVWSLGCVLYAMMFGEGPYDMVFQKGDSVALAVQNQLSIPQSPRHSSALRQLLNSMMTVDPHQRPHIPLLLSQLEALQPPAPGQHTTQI

As for `CN1C(=O)[C@@H](N2CCc3c(C(N)=O)nn(Cc4ccccc4)c3C2=O)COc2ccccc21` [Compound 11], the “ΔTM (stabilization in the DSF assay)” value in assay [1] was “inactive”.
Take `CN1C(=O)[C@@H](N2CCc3c(nn(Cc4ccccc4)c3C(N)=O)C2=O)COc2cc(Cl)ccc21` [Compound 10, (S)-2-benzyl-6-(8-chloro-5-methyl-4-oxo-2,3,4,5-tetrahydrobenzo[b][1,4]oxazepin-3-yl)-7-oxo-4,5,6,7-tetrahydro-2H-pyrazolo[3,4-c]pyridine-3-carboxamide]: the ΔTm at 10 µM in assay [2] was -0.1 °C. The remaining activity at 0.1 µM was determined as 100% in [3]; 57% in [5]; 87% in [6]; 88% in assay [7]; 100% in assay [8]; 78% in assay [9]. Further, the remaining activity at 0.1 µM in [10] (KIT (Entrez KIT)) amounted to 69%; in [10] (KIT-autoinhibited (Entrez KIT)) it was 100%; in [11], 100%; in assay [12], 78%; in [13] it was 81%; in assay [14] it was 68%. Further, the remaining activity at 0.1 µM turned out to be 74% in assay [15] (RSK2(Kin.Dom.2-C-terminal) (Entrez RPS6KA3), 100 nM); 100% in [17]; 86% in assay [19]; 73% in [20]; 91% in assay [21]; 100% in assay [23]. Also, the remaining activity at 0.1 µM in [24] worked out at 100%; in assay [25] it was 97%; in assay [30] it was 100%. Besides, the remaining activity at 1 µM in [4] was 100%; in [15] (RSK2(Kin.Dom.1-N-terminal) (Entrez RPS6KA3), 1000 nM), 100%; in [16] it was 100%; in [18] it was 100%; in assay [22], 100%; in [26] it was 66%. Further, the remaining activity at 1 µM in assay [27] is 89%; in assay [28], 99%; in assay [29] it was 100%.

The record behind these values is paper PMC12090182, “Repurposing of the RIPK1-Selective Benzo[1,4]oxazepin-4-one Scaffold for the Development of a Type III LIMK1/2 Inhibitor” (ACS Chemical Biology, 2025).
